Experimental data as given in US4593104A, “2-halo-N-(azole-1-yl-methyl)-substituted acetanilides” (BASF Aktiengesellschaft, priority 1976, dated 1986).

Legend:
Test in all cases: preemergence treatment in the greenhouse, % damage
Amar. retro. = format: in vivo
Excerpt: (§1) The vessels employed were plastic flowerpots having a volume of 300 cm^3; the substrate was a sandy loam containing about 1.5% humus. The seeds of the test plants (see Table 1) were sown shallow, and separated according to species. In the case of Cyperus esculentus, pregerminated tubers were planted. In the preemergence treatment, the active ingredients were then immediately applied to the surface of the soil. They were suspended or emulsified in water as the vehicle, and sprayed through atomizing nozzles. After the agents had been applied, the vessels were lightly sprinkler-irrigated to set germination and growth going, and to activate the chemical agents. The vessels were then covered with transparent plastic hoods until the plants had taken root. This cover ensured uniform germination of the test plants (to the extent that this was not impaired by the chemicals), and prevented readily volatile substances from evaporating.
(§2) For postemergence treatment, the plants were first grown to a height of from 3 to 10 cm, depending on their habit, before treated. Hoods were not placed on the pots. The experiments were set up in the greenhouse, hotter areas (25° to 40° C.) being preferred for heat-loving species, and 15° to 30° C. for plants from moderate climates. The experiments were carried out for from 4 to 6 weeks. During this period the plants were tended and their reaction to the various treatments was assessed. The following tables contain the substances investigated, the application rates in kg/ha of active ingredient, and the test plant species. Assessments were made on a 0 to 100 scale, 0 denoting no damage or normal emergence, and 100 denoting no emergence or complete destruction of at least the visible plant parts.

Cyp. diff. = format: in vivo
Excerpt: as §1, §2

Alopec. myosur. = format: in vivo
Excerpt: as §1, §2

Setaria spp. = format: in vivo
Excerpt: as §1, §2

Sorgh. halep. = format: in vivo
Excerpt: as §1, §2

Echin. c.g. = format: in vivo
Excerpt: as §1, §2

Gossyp. hirs. = format: in vivo, Gosspyium hirsutum
Excerpt: as §1, §2

Cyper. escul. = format: in vivo, Cyperus esculentus
Excerpt: as §1, §2

Glyc. max = format: in vivo, Glycine max
Excerpt: as §1, §2

Solanum nigrum = format: in vivo
Excerpt: as §1, §2

Euph. gen. = format: in vivo
Excerpt: as §1, §2

Matric. spp. = format: in vivo
Excerpt: as §1, §2

Bromus spp. = format: in vivo
Excerpt: as §1, §2

Beta vulg. = format: in vivo, Beta vulgaris
Excerpt: as §1, §2

Sorgh. bicol. = format: in vivo, Sorghum bicolor
Excerpt: as §1, §2

Zea mays = format: in vivo
Excerpt: as §1, §2

Row | Structure (SMILES) | % damage (Amar. retro.; 1.0 kg/ha) [%] | % damage (Alopec. myosur.; 1.0 kg/ha) [%] | % damage (Setaria spp.; 1.0 kg/ha) [%] | % damage (Echin. c.g.; 1.0 kg/ha) [%] | % damage (Glyc. max; 2.0 kg/ha) [%] | % damage (Amar. retro.; 2.0 kg/ha) [%] | % damage (Setaria spp.; 2.0 kg/ha) [%] | % damage (Echin. c.g.; 2.0 kg/ha) [%] | % damage (Alopec. myosur.; 2.0 kg/ha) [%] | other results
1 | Cc1cc(C)n(CN(C(=O)CCl)c2c(C)cccc2C(C)C)n1 [Compound 42] | 100 | 95 | 100 | 100 |  |  |  |  |  | % damage (Cyp. diff.; 1.0 kg/ha): 100%; % damage (Sorgh. halep.; 1.0 kg/ha): 90%
2 | CCc1cccc(CC)c1N(Cn1cncn1)C(=O)CCl [Compound 130] | 100 |  | 95 | 100 | 20 | 100 | 100 | 100 |  | % damage (Gossyp. hirs.; 0.5 kg/ha): 20%; % damage (Gossyp. hirs.; 1.0 kg/ha): 30%; % damage (Gossyp. hirs.; 2.0 kg/ha): 30%; % damage (Cyper. escul.; 0.5 kg/ha): 40%; % damage (Cyper. escul.; 1.0 kg/ha): 70%; % damage (Cyper. escul.; 2.0 kg/ha): 80%; % damage (Glyc. max; 0.5 kg/ha): 20%; % damage (Glyc. max; 1.0 kg/ha): 20%; % damage (Solanum nigrum; 0.5 kg/ha): 100%; % damage (Solanum nigrum; 1.0 kg/ha): 100%; % damage (Solanum nigrum; 2.0 kg/ha): 100%; % damage (Amar. retro.; 0.5 kg/ha): 95%; % damage (Euph. gen.; 0.5 kg/ha): 60%; % damage (Euph. gen.; 1.0 kg/ha): 60%; % damage (Euph. gen.; 2.0 kg/ha): 100%; % damage (Setaria spp.; 0.5 kg/ha): 85%; % damage (Echin. c.g.; 0.5 kg/ha): 95%
3 | Cc1cccc(C)c1N(Cn1cc(Cl)cn1)C(=O)CCl |  | 95 | 95 | 100 | 20 |  | 100 | 100 | 100 | % damage (Glyc. max; 1.0 kg/ha): 5%; % damage (Matric. spp.; 1.0 kg/ha): 75%; % damage (Matric. spp.; 2.0 kg/ha): 80%; % damage (Bromus spp.; 1.0 kg/ha): 92%; % damage (Bromus spp.; 2.0 kg/ha): 95%; % damage (Beta vulg.; 1.0 kg/ha): 3%; % damage (Beta vulg.; 2.0 kg/ha): 13%
4 | Cc1cc(C)n(CN(C(=O)CCl)c2cccc(C)c2C)n1 [Compound 50] | 100 | 90 | 100 | 100 |  |  |  |  |  | % damage (Cyp. diff.; 1.0 kg/ha): 100%; % damage (Sorgh. halep.; 1.0 kg/ha): 70%
5 | Cc1cccc(C(C)C)c1N(Cn1cncn1)C(=O)CCl [Compound 131] |  |  |  |  |  | 80 | 100 | 100 | 70 | % damage (Cyp. diff.; 2.0 kg/ha): 100%; % damage (Sorgh. halep.; 2.0 kg/ha): 80%
6 | Cc1cc(C)n(CN(C(=O)CCl)c2ccccc2)n1 [Compound 34] | 100 |  | 80 | 90 | 0 | 100 | 95 | 90 |  | % damage (Sorgh. bicol.; 1.0 kg/ha): 0%; % damage (Sorgh. bicol.; 2.0 kg/ha): 10%; % damage (Glyc. max; 1.0 kg/ha): 0%; % damage (Zea mays; 1.0 kg/ha): 0%; % damage (Zea mays; 2.0 kg/ha): 0%; % damage (Bromus spp.; 1.0 kg/ha): 95%; % damage (Bromus spp.; 2.0 kg/ha): 95%
7 | Cc1cccc(C(C)C)c1N(Cn1cccn1)C(=O)CCl [Compound 9] |  |  |  |  |  | 100 | 100 | 100 | 100 | % damage (Cyp. diff.; 2.0 kg/ha): 100%; % damage (Sorgh. halep.; 2.0 kg/ha): 90%
8 | CCc1cccc(CC)c1N(Cn1nc(C)c(Cl)c1C)C(=O)CCl [Compound 108] |  |  |  |  |  | 100 | 90 | 100 | 70 | % damage (Cyp. diff.; 2.0 kg/ha): 100%; % damage (Sorgh. halep.; 2.0 kg/ha): 60%
9 | Cc1ccn(CN(C(=O)CCl)c2c(C)cccc2C)n1 [Compound 67] |  |  |  |  |  |  |  |  |  | % damage (Amar. retro.; 0.25 kg/ha): 100%; % damage (Bromus spp.; 0.25 kg/ha): 100%; % damage (Sorgh. halep.; 0.25 kg/ha): 95%
10 | Cc1ccc(C)c(N(Cn2nc(C)cc2C)C(=O)CCl)c1 [Compound 52] |  |  |  |  |  | 100 | 90 | 95 | 60 | % damage (Cyp. diff.; 2.0 kg/ha): 100%; % damage (Sorgh. halep.; 2.0 kg/ha): 60%
11 | CCc1cccc(C)c1N(Cn1cc(C)cn1)C(=O)CCl |  |  |  |  |  |  |  |  |  | % damage (Echin. c.g.; 3.0 kg/ha): 100%
12 | Cc1cc(C)n(CN(C(=O)CCl)c2ccccc2C(C)C)n1 [Compound 37] | 100 | 30 | 100 | 100 |  |  |  |  |  | % damage (Cyp. diff.; 1.0 kg/ha): 100%; % damage (Sorgh. halep.; 1.0 kg/ha): 80%
13 | Cc1ccn(CN(C(=O)CCl)c2ccccc2C(C)C)n1 [Compound 72] | 95 | 100 | 90 |  | 20 | 95 | 95 |  | 100 | % damage (Sorgh. bicol.; 1.0 kg/ha): 20%; % damage (Sorgh. bicol.; 2.0 kg/ha): 40%; % damage (Glyc. max; 1.0 kg/ha): 10%; % damage (Zea mays; 1.0 kg/ha): 0%; % damage (Zea mays; 2.0 kg/ha): 10%; % damage (Beta vulg.; 1.0 kg/ha): 10%; % damage (Beta vulg.; 2.0 kg/ha): 10%
14 | CCc1cccc(C)c1N(Cn1nc(C)c(Cl)c1C)C(=O)CCl [Compound 107] |  |  |  |  | 0 | 95 | 95 |  | 95 | % damage (Sorgh. bicol.; 2.0 kg/ha): 85%; % damage (Zea mays; 2.0 kg/ha): 0%; % damage (Beta vulg.; 2.0 kg/ha): 0%
